According to ChEMBL document CHEMBL1151438, “In vitro resistance study of rupintrivir, a novel inhibitor of human rhinovirus 3C protease” (Antimicrob Agents Chemother, 2007):

Experiments:
rhinovirus A39 [1] = assay: Antiviral activity against HRV39 with 3C protease […], L136/F mutation infected in human H1-HeLa cells assessed as virus-induced cytopathic effect after 5 passages for 29 days by XTT assay; assay type: functional, organism-based; details: Rhinovirus A, 696 h
rhinovirus B14 [2] = assay: Ratio of EC50 for HRV14 with 3C protease T129A, T131T/A, T143P mutation infected in human H1-HeLa cells after 4 passages for 17 days to EC50 for wild type HRV14 infected in human H1-HeLa cells; assay type: functional
rhinovirus B14 [3] = assay: Ratio of EC50 for HRV14 with 3C protease with A121A/V, T129A, T131A, N132S, Y139Y/H, T143P mutation infected in human H1-HeLa cells after 12 passages for 72 days to EC50 for wild type HRV14 infected in human H1-HeLa cells; assay type: functional
rhinovirus B14 [4] = assay: Ratio of EC50 for HRV14 infected in human H1-HeLa cells after 3 passages for 14 days to EC50 for wild type HRV14 infected in human H1-HeLa cells; assay type: functional
rhinovirus B14 [5] = assay: Ratio of EC50 for HRV14 infected in human H1-HeLa cells after 4 passages for 17 days to EC50 for wild type HRV14 infected in human H1-HeLa cells; assay type: functional
rhinovirus B14 [6] = assay: Antiviral activity against wild type HRV14 infected in human H1-HeLa cells assessed as virus-induced cytopathic effect after 3 days by XTT assay; assay type: functional, organism-based; details: Rhinovirus B, 72 h
rhinovirus B14 [7] = assay: Antiviral activity against HRV14 with 3C protease T129A, T131T/A, T143P mutation infected in human H1-HeLa cells assessed as virus-induced cytopathic effect after 5 passages for 22 days by XTT assay; assay type: functional, organism-based; details: Rhinovirus B, 528 h
Human rhinovirus sp. [8] = assay: Ratio of EC50 for HRV Hanks infected in human H1-HeLa cells after 6 passage for 40 days to EC50 for wild type HRV Hanks infected in human H1-HeLa cells; assay type: functional
rhinovirus A39 [9] = assay: Ratio of EC50 for HRV39 infected in human H1-HeLa cells after 9 passages for 50 days to EC50 for wild type HRV39 infected in human H1-HeLa cells; assay type: functional
rhinovirus B14 [10] = assay: Ratio of EC50 for HRV14 with 3C protease T129A mutation infected in human H1-HeLa cells to EC50 for wild type HRV14 infected in human H1-HeLa cells; assay type: functional
rhinovirus A39 [11] = assay: Ratio of EC50 for HRV39 with 3C protease S105S/T, N130K, L136F mutation infected in human H1-HeLa cells after 9 passages for 50 days to EC50 for wild type HRV39 infected in human H1-HeLa cells; assay type: functional
rhinovirus B14 [12] = assay: Ratio of EC50 for HRV14 infected in human H1-HeLa cells after 11 passages for 65 days to EC50 for wild type HRV14 infected in human H1-HeLa cells; assay type: functional
rhinovirus B14 [13] = assay: Ratio of EC50 for HRV14 infected in human H1-HeLa cells after 7 passages for 33 days to EC50 for wild type HRV14 infected in human H1-HeLa cells; assay type: functional
Human rhinovirus sp. [14] = assay: Antiviral activity against wild type HRV Hanks infected in human H1-HeLa cells assessed as virus-induced cytopathic effect after 4 days by plaque reduction assay; assay type: functional, organism-based; details: 96 h
rhinovirus B14 [15] = assay: Ratio of EC50 for HRV14 infected in human H1-HeLa cells after 12 passages for 72 days to EC50 for wild type HRV14 infected in human H1-HeLa cells; assay type: functional
rhinovirus B14 [16] = assay: Ratio of EC50 for HRV14 with 3C protease Y139H mutation infected in human H1-HeLa cells to EC50 for wild type HRV14 infected in human H1-HeLa cells; assay type: functional
rhinovirus B14 [17] = assay: Ratio of EC50 for HRV14 infected in human H1-HeLa cells after 8 passages for 40 days to EC50 for wild type HRV14 infected in human H1-HeLa cells; assay type: functional
rhinovirus A2 [18] = assay: Ratio of EC50 for HRV2 infected in human H1-HeLa cells after 7 passages for 45 days to EC50 for wild type HRV2 infected in human H1-HeLa cells; assay type: functional
rhinovirus A39 [19] = assay: Ratio of EC50 for HRV39 with 3C protease […], L136/F mutation infected in human H1-HeLa cells after 5 passages for 29 days to EC50 for wild type HRV39 infected in human H1-HeLa cells; assay type: functional
rhinovirus B14 [20] = assay: Ratio of EC50 for HRV14 infected in human H1-HeLa cells after 5 passages for 22 days to EC50 for wild type HRV14 infected in human H1-HeLa cells; assay type: functional
rhinovirus B14 [21] = assay: Ratio of EC50 for HRV14 with 3C protease T129A, T131A, Y139H, T143P mutation infected in human H1-HeLa cells to EC50 for wild type HRV14 infected in human H1-HeLa cells; assay type: functional
rhinovirus A2 [22] = assay: Ratio of EC50 for HRV2 infected in human H1-HeLa cells after 5 passages for 30 days to EC50 for wild type HRV2 infected in human H1-HeLa cells; assay type: functional
rhinovirus A2 [23] = assay: Ratio of EC50 for HRV2 with 3C protease N165T mutation infected in human H1-HeLa cells after 6 passages for 37 days to EC50 for wild type HRV2 infected in human H1-HeLa cells; assay type: functional
rhinovirus A2 [24] = assay: Ratio of EC50 for HRV2 with 3C protease N165T mutation infected in human H1-HeLa cells after 3 passages for 24 days to EC50 for wild type HRV2 infected in human H1-HeLa cells; assay type: functional
Human rhinovirus sp. [25] = assay: Ratio of EC50 for HRV Hanks infected in human H1-HeLa cells after 3 passage for 35 days to EC50 for wild type HRV Hanks infected in human H1-HeLa cells; assay type: functional
rhinovirus B14 [26] = assay: Antiviral activity against HRV14 with 3C protease T143P mutation infected in human H1-HeLa cells assessed as virus-induced cytopathic effect after 3 days by XTT assay; assay type: functional, organism-based; details: Rhinovirus B, 72 h
rhinovirus A2 [27] = assay: Ratio of EC50 for HRV2 infected in human H1-HeLa cells after 6 passages for 37 days to EC50 for wild type HRV2 infected in human H1-HeLa cells; assay type: functional
rhinovirus B14 [28] = assay: Ratio of EC50 for HRV14 with 3C protease T131A mutation infected in human H1-HeLa cells to EC50 for wild type HRV14 infected in human H1-HeLa cells; assay type: functional
rhinovirus A2 [29] = assay: Ratio of EC50 for HRV2 infected in human H1-HeLa cells after 2 passages for 10 days to EC50 for wild type HRV2 infected in human H1-HeLa cells; assay type: functional
rhinovirus B14 [30] = assay: Antiviral activity against 0.02 MOI wild type HRV14 infected in human H1-HeLa cells assessed as cell killing after 3 days by XTT assay; assay type: functional
Human rhinovirus sp. [31] = assay: Ratio of EC50 for HRV Hanks infected in human H1-HeLa cells after 9 passage for 59 days to EC50 for wild type HRV Hanks infected in human H1-HeLa cells; assay type: functional
rhinovirus B14 [32] = assay: Ratio of EC50 for HRV14 with 3C protease T129T/A, T131T/A, T143P/S mutation infected in human H1-HeLa cells after 3 passages for 14 days to EC50 for wild type HRV14 infected in human H1-HeLa cells; assay type: functional

CCOC(=O)/C=C/[C@H](C[C@@H]1CCNC1=O)NC(=O)[C@@H](CC(=O)[C@@H](NC(=O)c1cc(C)on1)C(C)C)Cc1ccc(F)cc1 [RUPINTRIVIR]
EC50 (rhinovirus A39 [1]): 83 nM
Ratio EC50 (rhinovirus B14 [2]): 11
Ratio EC50 (rhinovirus B14 [3]): 20
Ratio EC50 (rhinovirus B14 [4]): 5
Ratio EC50 (rhinovirus B14 [5]): 10
EC50 (rhinovirus B14 [6]): 21 nM
EC50 (rhinovirus B14 [7]): 96 nM
Ratio EC50 (Human rhinovirus sp. [8]): 3
Ratio EC50 (rhinovirus A39 [9]): 6
Ratio EC50 (rhinovirus B14 [10]): 1
Ratio EC50 (rhinovirus A39 [11]): 4
Ratio EC50 (rhinovirus B14 [12]): 90
Ratio EC50 (rhinovirus B14 [13]): 30
EC50 (Human rhinovirus sp. [14]): 19 nM
Ratio EC50 (rhinovirus B14 [15]): 90
Ratio EC50 (rhinovirus B14 [16]): 1
Ratio EC50 (rhinovirus B14 [17]): 40
Ratio EC50 (rhinovirus A2 [18]): 5
Ratio EC50 (rhinovirus A39 [19]): 3
Ratio EC50 (rhinovirus B14 [20]): 20
Ratio EC50 (rhinovirus B14 [21]): 7
Ratio EC50 (rhinovirus A2 [22]): 5
Ratio EC50 (rhinovirus A2 [23]): 2
Ratio EC50 (rhinovirus A2 [24]): 1
Ratio EC50 (Human rhinovirus sp. [25]): 2
EC50 (rhinovirus B14 [26]): 15 nM
Ratio EC50 (rhinovirus A2 [27]): 5
Ratio EC50 (rhinovirus B14 [28]): 1
Ratio EC50 (rhinovirus A2 [29]): 1
Activity (rhinovirus B14 [30]): 90.2%
Ratio EC50 (Human rhinovirus sp. [31]): 3
Ratio EC50 (rhinovirus B14 [32]): 7
